The results in this text go back to patent US20220402950A1, “SUBSTITUTED BENZIMIDAZOLES AS PAD4 INHIBITORS” (BRISTOL-MYERS SQUIBB COMPANY, priority 2018, published 2022).

Where two headings read alike, the source gives them in different places.

The assay has as its target human PAD4 (hPAD4) (Homo sapiens, UniProt Q9UM07). Kind of assay: RFMS Human PAD4 Functional Assay. The conditions noted are these: 5 nM hPAD4, 250 μM BAEE. The class given is biochemical. The procedure, abridged: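 RapidFire ESI-MS quantification, normalised to a modified-citrulline internal standard, after phenyl glyoxal (final 4 mM) derivatisation of the TCA-quenched reaction. The enzyme (10 nM) sat 30 min with compound (up to 50 μM final) before 500 μM BAEE (as added) started a 90 min, 37 °C reaction. Buffer: HEPES pH 7.5, 50 μM calcium, 5 μM TPEN.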

Where [1] appears, read: hPAD4 RFMS IC50, human PAD4, rapid-fire mass spectrum (RFMS) assay.
[2] abbreviates: human PAD4, rapid-fire mass spectrum (RFMS) assay, read-out: hPAD4 RFMS IC50.

Chain of human PAD4 (hPAD4) (Q9UM07 whole entry): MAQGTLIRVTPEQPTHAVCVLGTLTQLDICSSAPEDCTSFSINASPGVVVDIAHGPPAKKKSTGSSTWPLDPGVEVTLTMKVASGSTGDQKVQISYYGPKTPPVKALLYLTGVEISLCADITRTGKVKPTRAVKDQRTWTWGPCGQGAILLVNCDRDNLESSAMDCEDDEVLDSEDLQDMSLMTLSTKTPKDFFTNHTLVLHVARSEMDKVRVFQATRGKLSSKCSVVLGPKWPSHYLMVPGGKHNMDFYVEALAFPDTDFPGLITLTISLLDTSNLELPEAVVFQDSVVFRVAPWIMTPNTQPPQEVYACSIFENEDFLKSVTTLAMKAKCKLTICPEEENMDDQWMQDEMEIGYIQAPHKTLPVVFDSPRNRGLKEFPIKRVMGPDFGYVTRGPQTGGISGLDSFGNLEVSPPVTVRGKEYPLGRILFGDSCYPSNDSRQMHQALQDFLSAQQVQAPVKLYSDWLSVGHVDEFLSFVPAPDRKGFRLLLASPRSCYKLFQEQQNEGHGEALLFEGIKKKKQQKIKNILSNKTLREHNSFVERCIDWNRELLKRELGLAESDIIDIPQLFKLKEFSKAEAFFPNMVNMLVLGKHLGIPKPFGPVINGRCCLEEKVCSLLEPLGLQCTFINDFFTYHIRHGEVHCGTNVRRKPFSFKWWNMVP

With `COc1cc(C(=O)N2C[C@H]3CC[C@@H]2[C@@H]3N)cc2nc(-c3cc4cccc(-c5cc(F)c(O)cc5F)c4n3CC3CC3)n(C)c12` [Example 94, 4-(2-{5-[(1R,4R,7R)-7-amino-2-azabicyclo[2.2.1]heptane-2-carbonyl]-7-methoxy-1-methyl-1H-1,3-benzodiazol-2-yl}-1-(cyclopropylmethyl)-1H-indol-7-yl)-2,5-difluorophenol], the half-maximal inhibitory concentration (IC50) (usually the point on the concentration scale where inhibition reaches its midpoint) under setting [1] amounted to 45 nM.

Take `COc1cc(C(=O)N2C[C@H]3CC[C@@H]2[C@@H]3N)cc2nc(-c3cc4cccc(Nc5ccccc5CO)c4n3CC3CC3)n(C)c12` [compound 182, ((1R,4R,7R)-7-amino-2-azabicyclo[2.2.1]heptan-2-yl)(2-(1-(cyclopropylmethyl)-7-((2-(hydroxymethyl)phenyl)amino)-1H-indol-2 yl)-7-methoxy-1-methyl-1H-benzo[d]imidazol-5-yl)methanone]: the IC50 under setting [2] stood at 191 nM.

Compound `COc1cc(C(=O)N2C[C@H]3CC[C@@H]2[C@@H]3N)cc2nc(-c3cc4cccc(-c5ccc6c(c5)CNC6=O)c4n3CC3CC3)n(C)c12` [Example 103, 5-(2-{5-[(1R,4R,7R)-7-amino-2-azabicyclo[2.2.1]heptane-2-carbonyl]-7-methoxy-1-methyl-1H-1,3-benzodiazol-2-yl}-1-(cyclopropylmethyl)-1H-indol-7-yl)-2,3-dihydro-1H-isoindol-1-one] showed an IC50 under setting [1] of 25 nM.

As for `COc1cc(C(=O)N2C[C@H](N)C[C@@H](F)C2)cc2nc(-c3cc4cccc(-c5ccc6c(c5)CNC6=O)c4n3CC3CC3)n(C)c12` [Example 209, 5-(2-(5-((3R,5R)-3-amino-5-fluoropiperidine-1-carbonyl)-7-methoxy-1-methyl-1H-benzo[d]imidazol-2-yl)-1-(cyclopropylmethyl)-1H-indol-7-yl)isoindolin-1-one], the IC50 under setting [1] is 69 nM.

Turning to `COc1cc(C(=O)N2C[C@H](N)CC[C@@H]2C)cc2nc(-c3cc4cccc(C5CN(C(C)=O)C5)c4n3CC3CC3)n(C)c12` [Example 42, 1-(3-(2-(5-((2S,5R)-5-amino-2-methylpiperidine-1-carbonyl)-7-methoxy-1-methyl-1H-benzo[d]imidazol-2-yl)-1-(cyclopropylmethyl)-1H-indol-7-yl)azetidin-1-yl)ethan-1-one], under setting [2], the half-inhibitory concentration (IC50) is 141 nM.

For the compound `COc1cc(C(=O)N2C[C@H]3CC[C@@H]2[C@@H]3N)cc2nc(-c3cc4cccc(C5CCN(C(C)=O)CC5)c4n3CC3CC3)n(C)c12` [Example 15, 1-[4-(2-{5-[(1R,4R,7R)-7-amino-2-azabicyclo[2.2.1]heptane-2-carbonyl]-7-methoxy-1-methyl-1H-1,3-benzodiazol-2-yl}-1-(cyclopropylmethyl)-1H-indol-7-yl)piperidin-1-yl]ethan-1-one], the IC50 under setting [1] came to 20 nM.

In the case of `COc1cc(C(=O)N2C[C@H]3CC[C@@H]2[C@@H]3N)cc2nc(-c3cc4cccc(C5CC(C(=O)N6CCCC6)C5)c4n3CC3CC3)n(C)c12` (single isomer, unassigned) [Example 49], under setting [1], inhibition was half-maximal at 34 nM (IC50).

As for `COc1cc(C(=O)N2C[C@H]3CC[C@@H]2[C@@H]3N)cc2nc(-c3cc4cccc(C5CCOCC5)c4n3CC3CC3)n(C)c12` [Example 3, ((1R,4R,7R)-7-amino-2-azabicyclo[2.2.1]heptan-2-yl)(2-(1-(cyclopropylmethyl)-7-(tetrahydro-2H-pyran-4-yl)-1H-indol-2-yl)-7-methoxy-1-methyl-1H-benzo[d]imidazol-5-yl)methanone], under setting [1], the half-inhibitory concentration (IC50) stood at 100 nM.

As for `COc1cc(C(=O)N2C[C@H]3CC[C@@H]2[C@@H]3N)cc2nc(-c3cc4cccc(C5CC(C(N)=O)C5)c4n3CC3CC3)n(C)c12` (single isomer, unassigned) [Example 46], under setting [1], half-maximal inhibition (IC50) required 13 nM.

In turn, `COc1cc(C(=O)N2C[C@H]3CC[C@@H]2[C@@H]3N)cc2nc(-c3cc4cccc(C5CN(S(=O)(=O)c6ccccc6)C5)c4n3CC3CC3)n(C)c12` [Example 83, (1R,4R,7R)-2-(2-{7-[1-(benzenesulfonyl)azetidin-3-yl]-1-(cyclopropylmethyl)-1H-indol-2-yl}-7-methoxy-1-methyl-1H-1,3-benzodiazole-5-carbonyl)-2-azabicyclo[2.2.1]heptan-7-amine] returned an IC50 under setting [1] of 123 nM.

In the case of `COc1cc(C(=O)N2C[C@H]3CC[C@@H]2[C@@H]3N)cc2nc(-c3cc4cccc(C5CCC5)c4n3CC3CC3)n(C)c12` [Example 7, (1R,4R,7R)-2-{2-[7-cyclobutyl-1-(cyclopropylmethyl)-1H-indol-2-yl]-7-methoxy-1-methyl-1H-1,3-benzodiazole-5-carbonyl}-2-azabicyclo[2.2.1]heptan-7-amine], under setting [1], the midpoint of inhibition, the IC50, lay at 158 nM.

As to `COc1cc(C(=O)N2C[C@H]3CC[C@@H]2[C@@H]3N)cc2nc(-c3cc4cccc(CCN5CCOC5=O)c4n3CC3CC3)n(C)c12` [Example 23, 3-[2-(2-{5-[(1R,4R,7R)-7-amino-2-azabicyclo[2.2.1]heptane-2-carbonyl]-7-methoxy-1-methyl-1H-1,3-benzodiazol-2-yl}-1-(cyclopropylmethyl)-1H-indol-7-yl)ethyl]-1,3-oxazolidin-2-one], the concentration for half-maximal inhibition (IC50) under setting [1] came to 120 nM.

`COc1cc(C(=O)N2C[C@H]3CC[C@@H]2[C@@H]3N)cc2nc(-c3cc4cccc(-c5ccc(C(N)=O)cc5)c4n3CC3CC3)n(C)c12` [Example 124, 4-(2-(5-((1R,4R,7R)-7-amino-2-azabicyclo[2.2.1]heptane-2-carbonyl)-7-methoxy-1-methyl-1H-benzo[d]imidazol-2-yl)-1-(cyclopropylmethyl)-1H-indol-7-yl)benzamide] came in with a 50% inhibitory concentration (IC50) under setting [1] of 25 nM.

In turn, `COc1cc(C(=O)N2C[C@H]3CC[C@@H]2[C@@H]3N)cc2nc(-c3cc4cccc(C5CC(C(=O)N6CC(F)C6)C5)c4n3CC3CC3)n(C)c12` (single isomer, unassigned; isomer 2) [Example 201] gave a half-maximal inhibitory concentration (IC50) under setting [1] of 57 nM.

Under setting [1], `COc1cc(C(=O)N2C[C@H]3CC[C@@H]2[C@@H]3N)cc2nc(-c3cc4cccc(CCc5c(C)n[nH]c5C)c4n3CC3CC3)n(C)c12` [Example 33, (1R,4R,7R)-2-{2-[1-(cyclopropylmethyl)-7-[2-(3,5-dimethyl-1H-pyrazol-4-yl)ethyl]-1H-indol-2-yl]-7-methoxy-1-methyl-1H-1,3-benzodiazole-5-carbonyl}-2-azabicyclo[2.2.1]heptan-7-amine] came in with an IC50 of 129 nM.

Regarding `CNC(=O)C1CC(c2cccc3cc(-c4nc5cc(C(=O)N6C[C@H]7CC[C@@H]6[C@@H]7N)cc(OC)c5n4C)n(CC4CC4)c23)C1` (single isomer, unassigned) [Example 43], the half-inhibitory concentration (IC50) under setting [2] came to 20 nM.

`COc1cc(C(=O)N2CC3CCC2C3N)cc2nc(-c3cc4cccc(NCC5CNC5)c4n3CC3CC3)n(C)c12` (stereo not drawn) [Example 159, (7-amino-2-azabicyclo[2.2.1]heptan-2-yl)(2-(7-((azetidin-3-ylmethyl)amino)-1-(cyclopropylmethyl)-1H-indol-2-yl)-7-methoxy-1-methyl-1H-benzo[d]imidazol-5-yl)methanone] showed an IC50 under setting [1] of 150 nM.

`COc1cc(C(=O)N2C[C@H]3CC[C@@H]2[C@@H]3N)cc2nc(-c3cc4cccc(C5(O)CCC5)c4n3CC3CC3)n(C)c12` [Example 218, ((1R,4R,7R)-7-amino-2-azabicyclo[2.2.1]heptan-2-yl)(2-(1-(cyclopropylmethyl)-7-(1-hydroxycyclobutyl)-1H-indol-2-yl)-7-methoxy-1-methyl-1H-benzo[d]imidazol-5-yl)methanone]: the IC50 under setting [1] was 57 nM.
